Test results: patent US20230101403A1, “METHOD OF TREATING OR AMELIORATING CANCERS DRIVEN BY RECEPTOR TYROSINE KINASE FUSION ONCOGENES, AND COMPOSITIONS FOR THE SAME” (THE TRUSTEES OF THE UNIVERSITY OF PENNSYLVANIA, priority 2021, published 2023)

Key:
H3122 cells = experiment: caspase-3 activity reporter (Nucview) in H3122; type: cell-based; settings: for killing over untreated cells, single agent: 24 hr
Excerpt: (§1) FIG. 6C depicts the quantification of death in STE-1 cells following 24 hrs of inhibitor treatment. FIG. 6D depicts the number of Erk pulses in cells that died (“D”) and cells that lived (“L”) during 24 hrs of inhibitor treatment. FIG. 6E depicts the percentage of caspase-3+ STE-1 and H3122 cells following 24 hrs of inhibitor treatment.

STE-1 cells [1] = experiment: cell death in cells imaged over 24 hrs; type: cell-based
EGR1, STE-1 cells = experiment: EGR1 expression in individual cells after drug treatment; type: cell-based
Protocol: (§2) Error bars represent 95% confidence intervals. […] FIG. 4I depicts the comparison of EGR1 expression after 6 hr of inhibitor treatment. […] FIG. 5B is the schematic of spatial analysis of Erk signaling in relation to dying cells. Cells within a 32 μm radius of a dying cell were considered neighbors of the dying cell, whereas all other cells were non-neighbors. Neighbors/non-neighbors were identified and tracked for 50 min before the death event, and Erk actvity in these cells was quantified. FIG. 5C depicts the quantification of Erk activity pulses in neighbors (“N”) or non-neighbors (“R”) of each cell-death event in the indicated conditions.

ppErk, H3122 cells = experiment: EGF-induced ppErk induction in H3122 cells; type: cell-based; settings: 100 ng/mL EGF, pre-treatment 1 μM
Excerpt: Data points represent mean single cell ppErk intensity of three replicates.
(§3) To determine whether such negative regulation could be observed in the context of native epidermal growth factor receptor (EGFR) signaling, the present study measured ppErk induction upon addition of epidermal growth factor (EGF) in STE-1 and H3122 cells, two NSCLC cell lines driven by EML4-ALK(V1) (FIG. 2A).
(§4) To determine whether the mechanism was predominantly transcriptional or post-translational, the required duration of ALKi pre-incubation to observe an increase in dynamic range was examined. both STE-1 and H3122 cells were preincubated with varying durations of ALK inhibition, and ppErk levels in response to 15 min of EGF stimulation was analyzed.

[2] = test system: ppErk, STE-1 and H3122 cancer cells; experiment: single-cell ppErk levels as a function of treatment duration; type: cell-based; settings: serum-starved
Excerpt: The present study sought to understand whether relief of EGFR inhibition by EML4-ALK might lead to Erk reactivation in STE-1 and H3122 cancer cells. […] The present study thus further examined Erk reactivation under ALK inhibition combined with marimastat, an inhibitor for matrix metalloproteases that are required for shedding EGF family ligands prior to paracrine signaling.

[3] = test system: Erk activity, STE-1 cells
Protocol: as §2
The present study next sought to determine the source of the paracrine signals. […] Signal activation near dying cells was quantified by first identifying the time and location of each cell death event. All cells that were within a 100-pixel radius (˜32 μm, or about a 2-cell radius) of the dying cell for the 50 minutes preceding death were then identified. The present study refers to these as the “neighbors” of the dying cell (FIG. 5B). The present study then counted Erk pulses in the neighbors of a death event and compared to Erk pulses from a randomly selected subset of non-neighbors over that same time interval.

[4] = test system: ppErk, STE-1 cells expressing optoFGFR; experiment: functional profiling: optoFGFR blue light stimulation, single-cell ppErk immunofluorescence; type: cell-based; settings: STE-1 optoFGFR
Excerpt: FIG. 1A illustrates that EML4-ALK+ cancer cells treated with ALK specific tyrosine kinase inhibitor (TKI) often result in a population of persistent/tolerant cells that later develop into resistant colonies. […] FIG. 1C, left panel, illustrates that transmembrane RTK and EML4-ALK protein granules both signal through the same adapter proteins and downstream pathways like Ras/Erk. FIG. 1C, right panel, illustrates the functional profiling method used in determining the extent to which EML4-ALK expression or its inhibition alter signal transmission in cancer cells. FIG. 1D illustrates that optoFGFR allows for blue light stimulation of RTK (optoFGFR) signal transduction. […] FIG. 1F depicts the normalized ppErk fold-change in response to 5 min of blue light stimulation. Blue light intensity ranged from 2% to 60% of maximum (1.45 W/cm^2). Datapoints show mean single-cell ppErk intensity from three replicates.
A method called functional profiling that allows the measurement of how oncogenes and targeted therapies can alter signal transmission was developed. In functional profiling, light-activated ‘optogenetic’ signaling stimuli are apply at specific nodes of a signaling pathway and downstream signals, transcription, and cell fate as a function of oncogene or drug status are observe.
To determine whether EML4-ALK could alter RTK signal transmission properties, a light-sensitive fibroblast growth factor receptor (optoFGFR) was expressed in the STE-1 cancer cell line, which is driven by the EML4-ALK(V1) oncogene. The present study observed signal transmission by applying blue light stimuli and measuring single-cell phospho-Erk levels single-cell immunofluorescence (FIG. 1D). In STE-1 cells, optoFGFR induced only mild double-phosphorylated Erk (ppErk) signal increase above the high basal ppErk levels attributed to active EML4-ALK (FIG. 1E, top). […] Signal dynamic range increased due to lowering of tonic Erk activity from ALK, as well as from an increase in the maximum signal achievable relative to untreated cells. […]

STE-1 cells [5] = experiment: caspase-3 activity reporter (Nucview) in STE-1; type: cell-based; settings: for killing over untreated cells, single agent: 24 hr
Protocol: as §1
Percent of Caspase-3 positive cells assessed using NucView 488 afterfive days of treatment with the indicated inhibitors: Alecitinib 1 μM, Erlotinib 1 μM, Marimastat 10 μM.

[6] = test system: Erk activity, STE-1 cells; experiment: live cell imaging of Erk kinase translocation reporter (ErkKTR); type: cell-based; settings: for effect on ErkKTR: Erk activity and reactivation pulses: crizotinib 1 μM, erlotinib 1 μM, marimastat 10 μM
Protocol: as §2
To further understand Erk reactivation, the present study observed Erk activity using live cell imaging of the Erk kinase translocation reporter (ErkKTR) in STE-1 cells (FIG. 4A). ErkKTR is a fluorescence reporter whose localization corresponds with Erk activity: the nuclear localization of ErkKTR indicates low activity of Erk while the cytoplasmic localization indicates high activity of Erk.

ppErk, STE-1 cells = experiment: EGF-induced ppErk induction in STE-1 cells; settings: 100 ng/mL EGF, pre-treatment 1 μM
Protocol: Data points represent mean single cell ppErk intensity of three replicates. FIG. 2C depicts the quantification of dynamic range of ppErk induction from experiment in 2C performed over a range of EGF concentrations. […] FIG. 2E depicts the ppErk immunofluoresence intensity response to 50 ng/mL EGF stimulation.
as §3, §4

SMILES | caspase-3-positive cell fraction (H3122 cells; first 24 hr of treatment) [%] | Erk pulses in surviving cells compared to cells that died (STE-1 cells [1]; 24 hrs) | cell death, % of cells analyzed (STE-1 cells [1]; imaged over 24 hrs) [%] | time EGR1 levels remained low (EGR1, STE-1 cells) | EGR1 expression (EGR1-high population) (EGR1, STE-1 cells; crizotinib 1 μM, erlotinib 1 μM) | ppErk dynamic range in response to EGF (ppErk, H3122 cells) | time to reappearance of ERK-hi cells [2] [h] | time within which mean Erk levels decreased dramatically [2] [min] | median Erk pulses per cell, neighbors of a death ([3]; 50 minutes preceding death, within ~32 μm) [pulses per cell] | proportion of neighbor cells with at least 1 pulse preceding a death event ([3]; neighbors) [%] | proportion of non-neighbor cells with at least 1 pulse preceding a death event ([3]; non-neighbors) [%] | dynamic range of signal induction (ppErk) ([4]; blue light, pre-treatment 1 μM) [fold] | light stimulation at which increase of dynamic range could be observed ([4]; 1 μM) | dynamic range plateau (induction) at the highest light levels ([4]; 1 μM, highest levels of light stimulation) [fold] | caspase-3-positive cell fraction (STE-1 cells [5]; first 24 hr of treatment) [%] | ErkKTR localization upon treatment ([6]; 1 μM) | ppErk dynamic range in response to EGF (ppErk, STE-1 cells) | killing over untreated cells, single agent (H3122 cells) | killing over untreated cells, single agent (STE-1 cells [5]) | effect on ErkKTR: Erk activity and reactivation pulses [6]
C[C@@H](Oc1cc(-c2cnn(C3CCNCC3)c2)cnc1N)c1c(Cl)ccc(F)c1Cl [crizotinib] | 5 | surviving cells showed an increased number of Erk pulses compared to cells that died | ~40 | at least 2 hrs | a distinct peak of EGR1-high cells appeared and grew at 4 and 6 hrs after drug treatment | dramatic increase in ppErk dynamic range | ≤ 1 | ≤ 10 | 0.23 | 60 | 20 | ~18 | ≤ 5 % maximal light stimulation | ~25 | 25 | induced rapid nuclear translocation of ErkKTR in all cells | dramatic increase in ppErk dynamic range | – | – | –
C#Cc1cccc(Nc2ncnc3cc(OCCOC)c(OCCOC)cc23)c1 [erlotinib] | – | – | – | – | – | – | – | – | – | – | – | – | – | – | – | – | – | Neither erlotinib or marimastat treatment alone showed enhanced killing over untreated cells | Neither erlotinib or marimastat treatment alone showed enhanced killing over untreated cells | no obvious effect on ErkKTR
CNC(=O)[C@@H](NC(=O)[C@H](CC(C)C)[C@H](O)C(=O)NO)C(C)(C)C [marimastat] | – | – | – | – | – | – | – | – | – | – | – | – | – | – | – | – | – | Neither erlotinib or marimastat treatment alone showed enhanced killing over untreated cells | Neither erlotinib or marimastat treatment alone showed enhanced killing over untreated cells | no obvious effect on ErkKTR
